This is an account of results in US20260258032A1, “TYROSINE KINASE 2 INHIBITORS AND USES THEREOF” (BIOGEN MA INC., priority 2022, published 2026).

The target in one test is T1, JH2 domain of human Tyk2 (Homo sapiens, UniProt P29597).
T1 construct: 10×His-tagged TYK2 JH2 domain (amino acid 575-876)
Briefly: JH2 biochemical assay (TR-FRET probe displacement). It counts as binding. Particulars: JH2 biochemical assay. The procedure, abridged: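 10×His-tagged human TYK2 JH2 (aa 575-876, 2 nM) incubated 60 min with 2 nM fluorescent probe, 0.1 nM Tb anti-His antibody and compound (10-point 3-fold series from […] top). TR-FRET 520/495 nm ratio, falling with probe displacement, normalized and fitted to a 4-parameter logistic for IC50.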
(In general: Time-resolved FRET reads energy transfer from a long-lived donor to a nearby acceptor.)

Test [1] concerns Tyk2 kinase activity on STAT4. Briefly: pSTAT4 cell assay (MSD, NK92 cells). The conditions noted are these: compounds 1 hr, stimulated 15 minutes. It counts as cell-based. The gist of the method:
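NK92, serum-starved; cpd 1 hr, 10-pt 4-fold from 10 μM; IL2 30 ng/mL 15 min; lyse; MSD with anti-STAT4 Abs; IC50 by 4-PL fit.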

The term IC50 denotes the concentration that gives 50% inhibition. Low readings indicate greater potency in that assay, high ones weaker potency in that assay.

Structures can show the parent of a compound that is named as a salt.

T1 sequence (P29597 575-876): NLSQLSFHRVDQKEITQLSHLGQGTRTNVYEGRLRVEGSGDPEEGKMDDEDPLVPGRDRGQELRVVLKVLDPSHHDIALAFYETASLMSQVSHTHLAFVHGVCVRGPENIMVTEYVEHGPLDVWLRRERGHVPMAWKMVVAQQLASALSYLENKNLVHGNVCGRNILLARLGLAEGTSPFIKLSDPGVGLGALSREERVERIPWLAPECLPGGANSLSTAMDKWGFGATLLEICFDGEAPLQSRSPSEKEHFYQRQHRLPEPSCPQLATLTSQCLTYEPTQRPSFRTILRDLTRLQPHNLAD

As to `CC(=O)Nc1cc2c(cn1)C1(CC1)CN2c1cc(C)cc(OC2CC(O)C2)n1` (stereo not drawn) [Example 342, N-(1′-(6-(3-hydroxycyclobutoxy)-4-methylpyridin-2-yl)-1′,2′-dihydrospiro[cyclopropane-1,3′-pyrrolo[3,2-c]pyridin]-6′-yl)acetamide], the IC50 is 100 to 1000 nM on JH2 domain of human Tyk2 and not below 1000 nM in test [1].

Regarding `COC1CC(Oc2cc(C)cc(N3CC4(CC4)c4cnc(NC(C)=O)cc43)n2)C1` (stereo not drawn) [Example 343, N-(1′-(6-(3-methoxycyclobutoxy)-4-methylpyridin-2-yl)-1′,2′-dihydrospiro[cyclopropane-1,3′-pyrrolo[3,2-c]pyridin]-6′-yl)acetamide trifluoroacetate], the IC50 on JH2 domain of human Tyk2 was 100 to 1000 nM; in test [1], not below 1000 nM.

`CC(=O)Nc1cc2c(cn1)C1(CC1)CN2c1cc(C)cc(OC2CC(C#N)C2)n1` (stereo not drawn) [Example 344, N-(1′-(6-(3-cyanocyclobutoxy)-4-methylpyridin-2-yl)-1′,2′-dihydrospiro[cyclopropane-1,3′-pyrrolo[3,2-c]pyridin]-6′-yl)acetamide trifluoroacetate]: the 50% inhibitory concentration (IC50) on JH2 domain of human Tyk2 is 100 to 1000 nM; in test [1] it was not below 1000 nM.

Consider `COCC1CC(Oc2cc(C)cc(N3CC4(CC4)c4cnc(NC(C)=O)cc43)n2)C1` (stereo not drawn) [Example 345, N-(1′-(6-(3-(methoxymethyl)cyclobutoxy)-4-methylpyridin-2-yl)-1′,2′-dihydrospiro[cyclopropane-1,3′-pyrrolo[3,2-c]pyridin]-6′-yl)acetamide trifluoroacetate], for which the figures for the IC50 (at JH2 domain of human Tyk2; in test [1]) were 100 to 1000 nM and not below 1000 nM, respectively.

Consider `CC(=O)Nc1cc2c(cn1)C1(CC1)CN2c1cc(C)cc(OC2CC(F)C2)n1` (stereo not drawn) [Example 346, N-(1′-(6-(3-fluorocyclobutoxy)-4-methylpyridin-2-yl)-1′,2′-dihydrospiro[cyclopropane-1,3′-pyrrolo[3,2-c]pyridin]-6′-yl)acetamide trifluoroacetate], for which the IC50 is 100 to 1000 nM at JH2 domain of human Tyk2 and not below 1000 nM in test [1].

In the case of `CC(=O)Nc1cc2c(cn1)C1(CC1)CN2c1cc(C)cc(OC2CC(C)C2)n1` (stereo not drawn) [Example 347, N-(1′-(4-methyl-6-(3-methylcyclobutoxy)pyridin-2-yl)-1′,2′-dihydrospiro[cyclopropane-1,3′-pyrrolo[3,2-c]pyridin]-6′-yl)acetamide trifluoroacetate], the IC50 at JH2 domain of human Tyk2 is 100 to 1000 nM; in test [1], not below 1000 nM.

On to `CC(=O)Nc1cc2c(cn1)C1(CC1)CN2c1cc(C)cc(OC2CC(F)C2)n1` (stereo not drawn) [Example 348, N-(1′-(6-(3-fluorocyclobutoxy)-4-methylpyridin-2-yl)-1′,2′-dihydrospiro[cyclopropane-1,3′-pyrrolo[3,2-c]pyridin]-6′-yl)acetamide trifluoroacetate], for which the IC50 at JH2 domain of human Tyk2 is 100 to 1000 nM; in test [1], not below 1000 nM.

As to `CC(=O)Nc1cc2c(cn1)C1(CC1)CN2c1cc(C)cc(OCC23CC(C)(CO2)C3)n1` [Example 349, N-(1′-(4-methyl-6-((4-methyl-2-oxabicyclo[2.1.1]hexan-1-yl)methoxy)pyridin-2-yl)-1′,2′-dihydrospiro[cyclopropane-1,3′-pyrrolo[3,2-c]pyridin]-6′-yl)acetamide], the IC50 on JH2 domain of human Tyk2 is 100 to 1000 nM; in test [1], not below 1000 nM.

Take `COC1CC(COc2cc(C)cc(N3CC4(CC4)c4cnc(NC(C)=O)cc43)n2)C1` (stereo not drawn) [Example 350, N-(1′-(6-((3-methoxycyclobutyl)methoxy)-4-methylpyridin-2-yl)-1′,2′-dihydrospiro[cyclopropane-1,3′-pyrrolo[3,2-c]pyridin]-6′-yl)acetamide]: the results for the IC50 (on JH2 domain of human Tyk2; in test [1]) were 100 to 1000 nM and not below 1000 nM, respectively.

On to `COC1(COc2cc(C)cc(N3CC4(CC4)c4cnc(NC(C)=O)cc43)n2)CCC1` [Example 351, N-(1′-(6-((1-methoxycyclobutyl)methoxy)-4-methylpyridin-2-yl)-1′,2′-dihydrospiro[cyclopropane-1,3′-pyrrolo[3,2-c]pyridin]-6′-yl)acetamide], for which the IC50 on JH2 domain of human Tyk2 is 100 to 1000 nM; in test [1] it was not below 1000 nM.

Consider `CC(=O)Nc1cc2c(cn1)C1(CC1)CN2c1cc(C)cc(OCC2CC2)n1` [Example 352, N-(1′-(6-(cyclopropylmethoxy)-4-methylpyridin-2-yl)-1′,2′-dihydrospiro[cyclopropane-1,3′-pyrrolo[3,2-c]pyridin]-6′-yl)acetamide trifluoroacetate], for which the results for the IC50 (on JH2 domain of human Tyk2; in test [1]) were 100 to 1000 nM and not below 1000 nM, respectively.

As to `CC(=O)Nc1cc2c(cn1)C1(CC1)CN2c1cc(C)cc(OC2CCC(F)C2)n1` (stereo not drawn) [Example 353, N-(1′-(6-((3-fluorocyclopentyl)oxy)-4-methylpyridin-2-yl)-1′,2′-dihydrospiro[cyclopropane-1,3′-pyrrolo[3,2-c]pyridin]-6′-yl)acetamide trifluoroacetate], the IC50 on JH2 domain of human Tyk2 was 100 to 1000 nM; in test [1], not below 1000 nM.

For the compound `CC(=O)Nc1cc2c(cn1)C1(CC1)CN2c1cc(C)cc(OC2CCCC2)n1` [Example 354, N-(1′-(6-(cyclopentyloxy)-4-methylpyridin-2-yl)-1′,2′-dihydrospiro[cyclopropane-1,3′-pyrrolo[3,2-c]pyridin]-6′-yl)acetamide trifluoroacetate], the concentration for half-maximal inhibition (IC50) on JH2 domain of human Tyk2 is 100 to 1000 nM; in test [1] it was not below 1000 nM.

With `CC(=O)Nc1cc2c(cn1)C1(CC1)CN2c1cc(C)cc(OCCF)n1` [Example 355, N-(1′-(6-(2-fluoroethoxy)-4-methylpyridin-2-yl)-1′,2′-dihydrospiro[cyclopropane-1,3′-pyrrolo[3,2-c]pyridin]-6′-yl)acetamide trifluoroacetate], the figures for the IC50 (at JH2 domain of human Tyk2; in test [1]) were not above 10 nM and 100 to 1000 nM, respectively.

With `CC(=O)Nc1cc2c(cn1)C1(CC1)CN2c1cc(C)cc(OCC(C)(F)F)n1` [Example 356, N-(1′-(6-(2,2-difluoropropoxy)-4-methylpyridin-2-yl)-1′,2′-dihydrospiro[cyclopropane-1,3′-pyrrolo[3,2-c]pyridin]-6′-yl)acetamide trifluoroacetate], the figures for the IC50 (on JH2 domain of human Tyk2; in test [1]) were 10 to 100 nM and not below 1000 nM, respectively.

With `COCCOc1cc(C)cc(N2CC3(CC3)c3cnc(NC(C)=O)cc32)n1` [Example 357, N-(1′-(6-(2-methoxyethoxy)-4-methylpyridin-2-yl)-1′,2′-dihydrospiro[cyclopropane-1,3′-pyrrolo[3,2-c]pyridin]-6′-yl)acetamide trifluoroacetate], the IC50 is 10 to 100 nM at JH2 domain of human Tyk2 and not below 1000 nM in test [1].

As for `CC(=O)Nc1cc2c(cn1)C1(CC1)CN2c1cc(C)cc(OCC2CCO2)n1` (stereo not drawn) [Example 358, N-(1′-(4-methyl-6-(oxetan-2-ylmethoxy)pyridin-2-yl)-1′,2′-dihydrospiro[cyclopropane-1,3′-pyrrolo[3,2-c]pyridin]-6′-yl)acetamide trifluoroacetate], the IC50 (on JH2 domain of human Tyk2; in test [1]) was not below 1000 nM in each case.

On to `CC(=O)Nc1cc2c(cn1)C1(CC1)CN2c1cc(OC2CCN(C)C2)nc(C(C)(F)F)n1` (stereo not drawn) [Example 359, N-(1′-(2-(1,1-difluoroethyl)-6-((1-methylpyrrolidin-3-yl)oxy)pyrimidin-4-yl)-1′,2′-dihydrospiro[cyclopropane-1,3′-pyrrolo[3,2-c]pyridin]-6′-yl)acetamide trifluoroacetate], for which the IC50 at JH2 domain of human Tyk2 is 10 to 100 nM; in test [1] it was not below 1000 nM.

Turning to `CC(=O)Nc1cc2c(cn1)C1(CC1)CN2c1cc(C)nc(OC2CC(F)(F)C2)n1` [Example 363, N-(1′-(2-(3,3-difluorocyclobutoxy)-6-methylpyrimidin-4-yl)-1′,2′-dihydrospiro[cyclopropane-1,3′-pyrrolo[3,2-c]pyridin]-6′-yl)acetamide], the IC50 is 100 to 1000 nM on JH2 domain of human Tyk2 and not below 1000 nM in test [1].

Turning to `CC(=O)Nc1cc2c(cn1)C1(CC1)CN2c1cc(C)nc(OC2CC3(COC3)C2)n1` [Example 364, N-(1′-(2-((2-oxaspiro[3.3]heptan-6-yl)oxy)-6-methylpyrimidin-4-yl)-1′,2′-dihydrospiro[cyclopropane-1,3′-pyrrolo[3,2-c]pyridin]-6′-yl)acetamide], the results for the IC50 (at JH2 domain of human Tyk2; in test [1]) were 100 to 1000 nM and not below 1000 nM, respectively.

On to `CC(=O)Nc1cc2c(cn1)C1(CC1)CN2c1cc(C)nc(OC2CC(C)C2)n1` (stereo not drawn) [Example 367, N-(1′-(6-methyl-2-(3-methylcyclobutoxy)pyrimidin-4-yl)-1′,2′-dihydrospiro[cyclopropane-1,3′-pyrrolo[3,2-c]pyridin]-6′-yl)acetamide], for which the IC50 on JH2 domain of human Tyk2 was 100 to 1000 nM; in test [1], not below 1000 nM.

As for `CC(=O)Nc1cc2c(cn1)C1(CC1)CN2c1cc(C)nc(OC2CC(F)(C#N)C2)n1` (stereo not drawn) [Example 368, N-(1′-(2-(3-cyano-3-fluorocyclobutoxy)-6-methylpyrimidin-4-yl)-1′,2′-dihydrospiro[cyclopropane-1,3′-pyrrolo[3,2-c]pyridin]-6′-yl)acetamide], the values for the IC50 (at JH2 domain of human Tyk2; in test [1]) were 100 to 1000 nM and not below 1000 nM, respectively.

For `CC(=O)Nc1cc2c(cn1)C1(CC1)CN2c1cc(C)nc(OCC2CC2)n1` [Example 369, N-(1′-(2-(cyclopropylmethoxy)-6-methylpyrimidin-4-yl)-1′,2′-dihydrospiro[cyclopropane-1,3′-pyrrolo[3,2-c]pyridin]-6′-yl)acetamide], the 50% inhibitory concentration (IC50) on JH2 domain of human Tyk2 is 100 to 1000 nM; in test [1], not below 1000 nM.

On to `CC(=O)Nc1cc2c(cn1)C1(CC1)CN2c1cc(C)nc(OC2CC(F)C2)n1` (stereo not drawn) [Example 370, N-(1′-(2-(3-fluorocyclobutoxy)-6-methylpyrimidin-4-yl)-1′,2′-dihydrospiro[cyclopropane-1,3′-pyrrolo[3,2-c]pyridin]-6′-yl)acetamide], for which the IC50 was 100 to 1000 nM on JH2 domain of human Tyk2 and not below 1000 nM in test [1].
